Test results: US20260167677A1, “ANTI-ADAM10 ANTIBODIES AND USES IN TREATMENT OF CANCER” (Memorial Sloan Kettering Cancer Center, priority 2022, published 2026)

Key:
[1] = tested on: xenografted COLO205 cells; test: Mouse model of CRC using xenografted COLO205 cells; type: in vivo; settings: first study; 1H5 30 mg/kg i.p. biweekly, irinotecan 20 mg/kg i.p. once a week
Description: For the mouse model, COLO205 cells were grown in monolayer culture, harvested by trypsinization, and implanted subcutaneously into the right flank of 6- to 8-week-old female athymic nude mice. Approximately 10 million cells were injected per mouse. Mice were randomized into 4 groups (each n=4).
Tumor volume was determined by external caliper and calculated by the modified ellipsoidal formula: V=½(Length×Width^2). Antitumor efficacy was calculated as (1-dT/dC)[…], where dT is the final tumor volume minus the starting tumor volume from the treatment group, and dC is the final tumor volume minus the starting tumor volume of the control group (Rios-Doria et al., 2015). Error bars were calculated as SEM. The mouse body weight and general health were monitored daily.
In a second study, 1H5 at two different doses was used in the mouse model. For the mouse model, approximately five million cells were implanted (subcutaneous with Matrigel) into 6- to 8-week-old female athymic nude mice. Mice were randomized into 3 groups (each n=5).

human ADAM10 ECD = biological target: T1, human ADAM10 ECD (Homo sapiens, UniProt O14672); test: Fluorogenic peptide cleavage assay, human ADAM10 ECD; type: biochemical; settings: 1:1 molar ratio; human or bovine ADAM10 ECD not told apart
T1 construct: Human ADAM10 ECD (20-650); Fc-tag (human); made in house; host or cells: baculovirus-infected Hi5 insect cells
T1 sequence (O14672 20-650): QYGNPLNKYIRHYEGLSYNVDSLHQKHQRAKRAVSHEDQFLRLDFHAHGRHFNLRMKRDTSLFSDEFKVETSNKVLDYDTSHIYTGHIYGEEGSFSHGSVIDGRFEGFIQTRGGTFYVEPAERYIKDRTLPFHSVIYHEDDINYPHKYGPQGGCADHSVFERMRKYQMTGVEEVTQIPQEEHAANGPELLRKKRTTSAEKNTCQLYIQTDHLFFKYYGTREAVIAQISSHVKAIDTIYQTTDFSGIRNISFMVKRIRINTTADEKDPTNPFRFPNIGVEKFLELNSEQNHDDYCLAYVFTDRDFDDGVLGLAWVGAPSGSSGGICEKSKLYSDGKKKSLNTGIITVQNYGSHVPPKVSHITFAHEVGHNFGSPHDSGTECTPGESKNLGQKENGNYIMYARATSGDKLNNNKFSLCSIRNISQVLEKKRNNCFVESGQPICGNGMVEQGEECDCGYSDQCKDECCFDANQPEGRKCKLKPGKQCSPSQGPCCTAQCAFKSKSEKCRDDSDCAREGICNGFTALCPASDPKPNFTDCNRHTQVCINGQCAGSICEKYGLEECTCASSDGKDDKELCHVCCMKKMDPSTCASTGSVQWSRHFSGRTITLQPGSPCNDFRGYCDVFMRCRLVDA
Description: ADAM10 ECD-antibody or ADAM10 ECD-inhibitor (broad spectrum metalloprotease inhibitor GM6001) complexes were formed at a 1:1 molar ratio prior to the assay. The assay was carried out by mixing 50 μM of a fluorogenic peptide substrate Mca-PLAQAV-Dpa with ADAM10-antibody/inhibitor complexes at 37° C., and monitoring the progress of the enzymatic reaction by fluorescence emission (excitation 320 nm and emission 405 nm) over a time course of 1 hour using a SpectraMax M5. ADAM10 ECD (bovine or human) alone was used as positive control. The substrate peptide was derived from TNFalpha and contains a highly fluorescent 7-methoxycoumarin group and a quencher group, 2,4-dinitrophenyl. ADAM10 cleaves the amide bond between the fluorescent and the quencher group causing an increase in fluorescence (Seegar et al., 2017; Black & Becherer, 1998).

Row | effect on substrate cleavage (human ADAM10 ECD) | SMILES | tumor growth inhibition [1]
1 |  | CCc1c2c(nc3ccc(OC(=O)N4CCC(N5CCCCC5)CC4)cc13)-c1cc3c(c(=O)n1C2)COC(=O)[C@]3(O)CC [Irinotecan, irinotecan, reference compound] | 48%
2 | marginal inhibition | CNC(=O)[C@H](Cc1c[nH]c2ccccc12)NC(=O)[C@@H](CC(=O)NO)CC(C)C [broad-spectrum inhibitor, GM6001, reference compound] | 
